Article PMC4839630, “Investigation the Possibility of Using Peptides with a Helical Repeating Pattern of Hydro-Phobic and Hydrophilic Residues to Inhibit IL-10” (PLoS ONE, 2016)
Ends that are not written are not given here.

Legend:
[1] = test system: IL-10R on U937 cells; experiment: Surface staining of IL-10 receptor (PE anti-IL10R antibody) on U937 cells by flow cytometry; type: cell-based, human; conditions: U937 stimulated overnight with LPS (4×10^−3 μM); P1 4.5 μM, P2 4.1 μM, P3 5.6 μM, P4 4.2 μM; MFI by flow cytometry
Protocol: Human macrophage cell line U937 was maintained in complete RPMI 1640 media (Gibco) supplemented with 10% heat inactivated FCS, 100 U of penicillin/ml and 100 μg of streptomycin/ml and were cultured at 37°C with 5% CO2.
In vitro stimulation of U937 cells: 2–5×10^5 of U937 cells were cultured in 1 mL of RPMI with 10% human serum containing 100 U of ampicillin and 100 U of streptomycin. The U937 cells were either unstimulated or stimulated with 4×10^−3 μM of LPS (Sigma, Cat. L3024-5MG) overnight, in the presence of different concentration of P1, P2 or P3 or anti-IL-10 (10 μg/mL, ~0.3 μM) or anti-IL-10R (10 μg/mL, ~0.1 μM) antibodies. Supernatants were collected and stored at -80°C till use.
Surface staining of IL-10 receptor on U937 cell membrane: 2–5×10^5 of U937 cells were stained with PE conjugated anti-IL10R antibody for 30 minutes on ice, then washed with PBS with 2% of FCS and analysed with an Acuri flowcytometor (BD, USA) as described previously.

[2] = test system: U937 cells; experiment: 7-AAD cell-viability assay; type: cell-based, human; conditions: two independent assays, flow cytometry
Protocol: 7-AAD assay: 7-AAD Viability Staining Solution was purchased from eBioscience (Cat. 00–6993). Briefly, 5 μL of 7-aad were added to 5×10^5 cells for 5 minutes, and 7-aad staining was measured by a BD Accuri flow cytometry.
In order for a peptide to be useful as potential drug candidates, its cytotoxicity has to be low. We evaluated the cytotoxicity of P1 and P2 using 7-AAD cell-viability assay (S5 Fig).

[3] = target: T1, IL-10R1 (Homo sapiens, UniProt Q13651); experiment: SPR binding to immobilised IL-10R1; conditions: SPR Biacore T100, CM5 chip, 1X PBS pH 7.4, 25°C, 10 μL/min; steady-state affinity analysis, three independent repeats
T1 construct: purchased Creative BioMart, USA IL10RA-212H
T1 sequence (Q13651 22-578): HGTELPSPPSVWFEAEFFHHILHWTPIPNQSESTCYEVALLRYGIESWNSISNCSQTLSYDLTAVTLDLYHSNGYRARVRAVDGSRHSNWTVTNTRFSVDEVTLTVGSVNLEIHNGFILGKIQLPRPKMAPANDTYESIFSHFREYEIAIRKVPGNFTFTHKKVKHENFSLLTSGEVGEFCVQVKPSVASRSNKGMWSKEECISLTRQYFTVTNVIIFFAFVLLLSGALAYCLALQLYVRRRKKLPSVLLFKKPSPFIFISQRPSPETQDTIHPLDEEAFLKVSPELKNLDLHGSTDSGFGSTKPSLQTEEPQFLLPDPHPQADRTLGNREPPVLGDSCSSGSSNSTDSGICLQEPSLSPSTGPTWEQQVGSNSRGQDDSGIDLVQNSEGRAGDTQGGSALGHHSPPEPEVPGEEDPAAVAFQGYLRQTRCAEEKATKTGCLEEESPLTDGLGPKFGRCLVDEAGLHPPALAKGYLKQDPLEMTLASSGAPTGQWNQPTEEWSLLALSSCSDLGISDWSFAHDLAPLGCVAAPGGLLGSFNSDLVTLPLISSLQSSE

[4] = target: IL-10 (Homo sapiens, UniProt P22301); experiment: SPR binding to immobilised IL-10; design: purchased ebioscience BMS/346; conditions: SPR Biacore T100, CM5 chip, 1X PBS pH 7.4, 25°C, 10 μL/min; steady-state affinity analysis, three independent repeats
[5] = test system: MC/9 cells; experiment: MC/9 cell proliferation, MTT assay; type: cell-based, mouse; conditions: 5×10^−5 μM IL-10, 1×10^4 cells, 48 h, media with 2×10^−5 μM IL4
Protocol: Murine mast cell MC/9 cell line was purchased from ATCC, USA and cultured following the protocols in the product sheets. Briefly, MC/9 cells were cultured in complete RPMI 1640 media (Gibco) supplemented with 10% heat inactivated fetal calf serum (FCS), 100 U of penicillin/ml and 100 μg of streptomycin/ml and were cultured at 37°C with 5% CO2 and 5 ng of murine IL-4 or 1 ng of human IL-10 as recommended by ATCC, with or without adding P1, P2 or P3 respectively. MC/9 cell proliferation was determined by MTT assay (purchased from ATCC, USA) following the instruction of manufacturer.
Mouse mast cell line MC/9 growth is IL-10 dependent. We therefore investigated whether P1 or P2 is able to prevent IL-10 mediated MC/9 cell growth. MC/9 cells were cultured at different numbers for 48 hours and cell proliferation was measured by MTT assay, which measures the MC/9 cell proliferation. […] Thus, cell number of 1×10^4 was selected in the assay.

Lipopolysaccharide [LPS]
binding of PE anti-IL-10R antibody (clone 3F9) to IL-10R on U937 cells [1]: More antibody binds to IL-10R1 after LPS stimulation, and is positively correlated with the dose of LPS

FFRRFFRRFFRRFFRR [P2]
cell death, 7-AAD (in words) [2]: there is no significant difference for cell death in the presence or absence of P1 or P2

FFKKFFKKFFKKFFKK [P1]
cell death, 7-AAD (in words) [2]: there is no significant difference for cell death in the presence or absence of P1 or P2 | Kd [3]: 16 ± 1.95 µM | Kd [4]: 8.94 ± 0.37 µM

B1: IL-10: Human IL10 purchased from ebioscience (Cat. No: BMS/346) (protein)
chain: SPGQGTQSENSCTHFPGNLPNMLRDLRDAFSRVKTFFQMKDQLDNLLLKESLLEDFKGYLGCQALSEMIQFYLEEVMPQAENQDPDIKAHVNSLGENLKTLRLRLRRCHRFLPCENKSKAVEQVKNAFNKLQEKGIYKAMSEFDIFINYIEAYMTMKIRN
increase in MC/9 cell proliferation [5]: approximately 133%
